Positions count from the first letter of the chain named. Several values for one entry are separate records, joined by “and”; a condition that tells them apart may be missing. Equal entries are not always repeated. Entries after “also recorded” stand apart in the source; their conditions may differ. Where two headings read alike, the source gives them in different places.
Experiments:
WT LCAT [1] = target: T1, WT LCAT (Homo sapiens, UniProt P04180); assay: MUP hydrolysis (esterase) assay; type: biochemical; parameters: hydrolysis of 4-methylumbelliferyl palmitate (MUP) by full-length LCAT; made in house; host or cells: HEK293F (transient transfection, secreted)
T1 sequence (P04180 25-440): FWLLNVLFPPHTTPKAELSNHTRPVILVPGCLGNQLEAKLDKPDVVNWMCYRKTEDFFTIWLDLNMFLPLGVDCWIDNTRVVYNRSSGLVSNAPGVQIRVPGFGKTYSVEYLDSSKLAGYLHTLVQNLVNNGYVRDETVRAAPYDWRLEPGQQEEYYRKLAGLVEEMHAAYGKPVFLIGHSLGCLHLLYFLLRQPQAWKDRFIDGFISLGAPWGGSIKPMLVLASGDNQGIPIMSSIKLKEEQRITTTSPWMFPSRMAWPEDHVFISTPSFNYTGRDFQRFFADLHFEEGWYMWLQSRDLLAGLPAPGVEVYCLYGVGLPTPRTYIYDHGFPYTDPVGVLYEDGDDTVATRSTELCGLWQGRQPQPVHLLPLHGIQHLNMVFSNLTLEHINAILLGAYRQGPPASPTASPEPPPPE
Procedure: (§1) The lipase activity of LCAT was measured using MUP as a substrate. The assay was performed at room temperature in 0.1 M sodium phosphate buffer, pH 7.4 containing 0.01% Triton X-100. 4 μL of LCAT (6 nM final concentration) were dispensed into a 1536-well Greiner solid black plate. The same volume of assay buffer was dispensed into column 1 and 2 for a no-enzyme control. […] After 15 min incubation, 2 μL MUP (16 μM final concentration) was added to initiate the reaction. The hydrolysis of MUP was monitored using a ViewLux plate reader (excitation 380 nm/emission 450 nm) for 20 min. The fluorescence signal was normalized against no-activator and no-enzyme control after subtraction of background signal (t = 0 min). To plot percent activation, in each assay 100% was set at the rate of LCAT or LCAT variant without compound. The resulting data were fitted to a sigmoidal dose response curve.

LCAT Y51S = target: T2, LCAT Y51S (Homo sapiens, UniProt P04180, Y75S); assay: MUP hydrolysis (esterase) assay; type: biochemical
T2 construct: hydrolysis of 4-methylumbelliferyl palmitate (MUP) by full-length LCAT; made in house; host or cells: HEK293F (transient transfection, secreted)
T2 sequence (P04180 25-440 Y75S): T1 sequence (P04180 25-440) with Y51S
Procedure: as §1

LCAT Y51S/G71I = target: T3, LCAT Y51S/G71I (Homo sapiens, UniProt P04180, G95I/Y75S); assay: MUP hydrolysis (esterase) assay; type: biochemical; conditions: compound titrated from 0.04 to 9.5 μM
T3 construct: hydrolysis of 4-methylumbelliferyl palmitate (MUP) by full-length LCAT; made in house; host or cells: HEK293F (transient transfection, secreted)
T3 sequence (P04180 25-440 Y75S/G95I): T1 sequence (P04180 25-440) with Y51S, G71I
Procedure: as §1

LCAT G71I = target: T4, LCAT G71I (Homo sapiens, UniProt P04180, G95I); assay: MUP hydrolysis (esterase) assay; type: biochemical; conditions: compound titrated from 0.04 to 9.5 μM
T4 construct: hydrolysis of 4-methylumbelliferyl palmitate (MUP) by full-length LCAT; made in house; host or cells: HEK293F (transient transfection, secreted)
T4 sequence (P04180 25-440 G95I): T1 sequence (P04180 25-440) with G71I
Procedure: as §1

WT LCAT [2] = target: T1, WT LCAT; assay: Differential scanning fluorimetry; type: binding; parameters: hydrolysis of 4-methylumbelliferyl palmitate (MUP) by full-length LCAT; made in house; host or cells: HEK293F (transient transfection, secreted); conditions: for Thermal stabilization (DSF): WT LCAT; for Thermal stabilization of WT LCAT (DSF): compound at 10 μM
Procedure: Tm values were determined using an Applied Biosystems QuantStudio 7 Flex qPCR machine with two replicates performed at least in triplicate. LCAT at 0.05 mg mL^−1 was diluted into reaction buffer containing 5X Sypro Orange in a final volume of 10 μL in 384-well PCR plates. DMSO or compound 1 was added so that all reactions contained 3% DMSO. The reactions were run from 25–95 °C with a ramp rate of 0.03 °C s^−1. Tm values were determined as the derivative using Protein Thermal Shift software. Significance was determined using a one-way analysis of variance followed by Tukey’s multiple comparisons post-test in GraphPad Prism.

[3] = WT, compound titrated from 0.04 to 9.5 μM, read-out: MUP assay EC50
[4] = Y51S, compound titrated from 0.04 to 9.5 μM
[5] = WT, compound titrated from 0.04 to 9.5 μM

Structure (SMILES) | EC50 (WT LCAT [1]; [3]) [nM] | EC50 (WT LCAT [1]; full-length WT LCAT, read-out: EC50, MUP hydrolysis) [nM] | EC50 (LCAT Y51S; [4]) [nM] | Fold activation, MUP esterase assay (LCAT Y51S; [4]) | MUP EC50 of Y51S relative to WT (LCAT Y51S; fold higher than WT) [fold] | Fold activation, MUP esterase assay (LCAT Y51S/G71I) | MUP assay EC50 (LCAT Y51S/G71I) | EC50 (LCAT G71I) [nM] | Fold activation, MUP esterase assay (LCAT G71I) | Thermal stabilization (DSF) (WT LCAT [2]) | Fold activation, MUP esterase assay (WT LCAT [1]; [5]) | MUP assay EC50 (WT LCAT [1]; [5]) | MUP assay EC50 (LCAT Y51S; [4]) | MUP assay EC50 (LCAT G71I) | EC50 (LCAT Y51S/G71I) [nM] | Thermal stabilization of WT LCAT (DSF) (WT LCAT [2])
N#Cc1cnc(N2CCC(c3n[nH]c4c3C(O)(C(F)(F)F)CC(=O)N4)CC2)cc1C(F)(F)F (centres unmarked) [compound 1, 6-(4-(4-Hydroxy-6-oxo-4-(trifluoromethyl)−4,5,6,7-tetrahydro-1H-pyrazolo[3,4-b]pyridin-3-yl)piperidin-1-yl)−4-(trifluoromethyl)nicotinonitrile] | 160 ± 10 | ~150 | 590 ± 30 | 1.9 ± 0.2 fold | 4 | 1.3 ± 0.3 fold | no response; also recorded: no effect | > 5000 | 1.5 ± 0.4 fold | stabilize | – | – | – | – | – | –
O=C1CC(O)(C(F)(F)F)c2c(C3CCN(c4cnc(C(F)(F)F)cn4)CC3)n[nH]c2N1 (centres unmarked) [compound 2, 4-Hydroxy-4-(trifluoromethyl)−3-(1-(5-(trifluoromethyl)pyrazin-2-yl)piperidin-4-yl)−4,5-dihydro-1H-pyrazolo[3,4-b]pyridin-6(7H)-one] | 280 ± 40 | – | 740 ± 200 | 1.8 ± 0.1 fold | – | 0.99 ± 0.03 fold | no effect | > 5000 | 1.7 ± 0.2 fold | stabilize | – | – | – | – | – | –
O=C1CC(O)(C(F)(F)F)c2c(ncn2C2CCN(c3cnc(C(F)(F)F)cn3)CC2)N1 (centres unmarked) [compound 3, 7-Hydroxy-7-(trifluoromethyl)−1-(1-(5-(trifluoromethyl)pyrazin-2-yl)piperidin-4-yl)−6,7-dihydro-1H-imidazo[4,5-b]pyridin-5(4H)-one] | 320 ± 50 | – | 1600 ± 400 | 1.9 ± 0.2 fold | – | 1.1 ± 0.06 fold | no effect | > 5000 | 1.5 ± 0.2 fold | stabilize | – | – | – | – | – | –
O=C1CC(O)(C(F)(F)F)c2c(ncn2C2CCNCC2)N1 (centres unmarked) [compound 6, 7-Hydroxy-1-(piperidin-4-yl)−7-(trifluoromethyl)−6,7-dihydro-1H-imidazo[4,5-b]pyridin-5(4H)-one] | – | – | – | no effect | – | no effect | no effect | – | no effect | – | no activating effect | no effect | no effect | no effect | – | do not stabilize; also recorded: could not thermal stabilize

Second part, led by results:

EC50 (WT LCAT [1]; [3]) [nM] | EC50 (WT LCAT [1]; full-length WT LCAT, read-out: EC50, MUP hydrolysis) [nM] | EC50 (LCAT Y51S; [4]) [nM] | Fold activation, MUP esterase assay (LCAT Y51S; [4]) | MUP EC50 of Y51S relative to WT (LCAT Y51S; fold higher than WT) [fold] | Fold activation, MUP esterase assay (LCAT Y51S/G71I) | MUP assay EC50 (LCAT Y51S/G71I) | EC50 (LCAT G71I) [nM] | Fold activation, MUP esterase assay (LCAT G71I) | Thermal stabilization (DSF) (WT LCAT [2]) | Fold activation, MUP esterase assay (WT LCAT [1]; [5]) | MUP assay EC50 (WT LCAT [1]; [5]) | MUP assay EC50 (LCAT Y51S; [4]) | MUP assay EC50 (LCAT G71I) | EC50 (LCAT Y51S/G71I) [nM] | Structure (SMILES) | Thermal stabilization of WT LCAT (DSF) (WT LCAT [2])
4600 ± 60 | – | > 10000 | 2.8 ± 0.6 fold | – | 1.1 ± 0.07 fold | – | > 10000 | 1.2 ± 0.1 fold | – | 3.7 fold and 3.7 ± 0.9 fold | – | – | – | > 10000 | O=c1cc(C(F)(F)F)c2c(ncn2C2CCN(c3cnc(C(F)(F)F)cn3)CC2)[nH]1 [compound 8, 7-(trifluoromethyl)−1-(1-(5-(trifluoromethyl)pyrazin-2-yl)piperidin-4-yl)−1H-imidazo[4,5-b]pyridin-5(4H)-one] | do not stabilize; also recorded: could not thermal stabilize
7700 ± 2000 | – | > 10000 | 1.1 ± 0.07 fold | – | 0.97 ± 0.003 fold | no effect | – | 0.96 ± 0.01 fold | – | 1.6 fold and 1.6 ± 0.2 fold | – | – | no effect | – | O=C1CC(O)(C(F)(F)F)c2c(C3CCN(c4cnc(C(F)(F)F)cn4)CC3)noc2N1 (centres unmarked) [compound 9, 4-hydroxy-4-(trifluoromethyl)−3-(1-(5-(trifluoromethyl)pyrazin-2-yl)piperidin-4-yl)−4,5-dihydroisoxazolo[5,4-b]pyridin-6(7H)-one] | do not stabilize; also recorded: could not thermal stabilize
